Read-outs that look alike come from different tables or passages of the source.
Key:
[1] = tested on: primary AML blasts; test: Cell viability (sytox blue, flow cytometry) of primary AML patient samples, LC50; format: cell-based, human; details: 54 primary AML samples; 48 h; RPMI/15% FCS; combination at 1:1
Description: Primary AML patient samples: Bone marrow or peripheral blood samples from patients with AML were collected after informed consent in accordance with guidelines approved by The Alfred Hospital Human research ethics committees. Mononuclear cells were isolated by Ficoll-Paque (GE Healthcare, VIC, Aus) density-gradient centrifugation, followed by red cell depletion in ammonium chloride (NH4Cl) lysis buffer at 37° C. for 10 minutes. Cells were then re-suspended in phosphate-buffered saline containing 2% Fetal Bovine serum (Sigma, NSW, Aus). Mononuclear cells were then suspended in RPMI-1640 (GIBCO VIC, Aus) medium containing penicillin and streptomycin (GIBCO) and heat inactivated fetal bovine serum 15% (Sigma).
Cell Viability: Freshly purified mononuclear cells from AML patient samples were adjusted to a concentration of 2.5×10^5/ml and 100 μL of cells aliquoted per well into 96 well plates (Sigma). […] For combinations assays, drugs were added at a 1:1 ratio from 1 nM to 10 μM and incubated at 37° C. 5% CO2. Cells were then stained with sytox blue nucleic acid stain (Invitrogen, VIC, Aus) and fluorescence measured by flow cytometric analysis using the LSR-II Fortessa (Becton Dickinson, NSW, Aus). FACSDiva software was used for data collection, and FlowJo software for analysis. Blast cells were gated using forward and side scatter properties. […]

[2] = tested on: NAN3; test: MTT cell viability assay, myeloma cell line; format: cell-based, human; details: single agent
Description: (§1) Cell lines: Human myeloma cell lines (HMCLs) were derived from primary myeloma cells cultured in RPMI 1640 medium supplemented with 5% fetal calf serum from and 3 ng/mL recombinant IL-6 for IL-6 dependent cell lines. HMCLs are representative of phenotypic and genomic heterogeneity and the variability in patient's response to therapy.
(§2) MTT assay: Cell viability is measured using MTT (3-(4,5-dimethylthiazol-2-yl)-2,5-diphenyltetrazolium bromide) colorimetric survival assay. Cells are incubated with compounds in 96-well plates containing a final volume of 100 μl/well time. (2R)-2-{[(5Sa)-5-{3-chloro-2-methyl-4-[2-(4-methylpiperazin-1-yl)ethoxy]phenyl}-6-(5-fluorofuran-2-yl)thieno[2,3-d]pyrimidin-4-yl]oxy}-3-(2-{[1-(2,2,2-trifluoroethyl)-1H-pyrazol-5-yl]methoxy}phenyl)propanoic acid (Compound 2) is used at 9 different concentrations accordingly to single agent sensitivity. N-(4-hydroxyphenyl)-3-{6-[((3S)-3-(4-morpholinylmethyl)-3,4-dihydro-2(1H)-isoquinolinyl)carbonyl]-1,3-benzodioxol-5-yl}-N-phenyl-5,6,7,8-tetrahydro-1-indolizine carboxamide hydrochloride (Compound 1, HCl) is used at a fixed dose—1 μM. At the end of each treatment, cells are incubated with 1 mg/mL MTT (50 μl MTT solution 2.5 mg/ml for each well) at 37° C. for 3 hours allowing the MTT to be metabolized. Lysis buffer (100 μl Lysis buffer: DMF (2:3)/SDS (1:3)) is added into each well to dissolve formazan cristals and after 18 h of incubation, absorbance in viable cells is measured at 570 nm using a spectrophotometer.
(§3) The sensitivity of 27 human multiple myeloma cell lines to Compound 1, Compound 2 or to Compound 2 in the presence of 1 μM of Compound 1 was analyzed by using MTT cell viability assay. 50% inhibitory concentrations (IC50, in nM) were determined.

[3] = tested on: XG2; test: MTT cell viability assay, myeloma cell line; format: cell-based, human
Description: as §1, §2, §3

[4] = tested on: JIM3; test: MTT cell viability assay, myeloma cell line; format: cell-based, human
Description: as §1, §2, §3

[5] = tested on: NAN6; test: MTT cell viability assay, myeloma cell line; format: cell-based, human
Description: as §1, §2, §3

[6] = tested on: BCN; test: MTT cell viability assay, myeloma cell line; format: cell-based, human
Description: as §1, §2, §3

[7] = tested on: L363; test: MTT cell viability assay, myeloma cell line; format: cell-based, human
Description: as §1, §2, §3

[8] = tested on: XG6; test: MTT cell viability assay, myeloma cell line; format: cell-based, human
Description: as §1, §2, §3

[9] = tested on: XG3; test: MTT cell viability assay, myeloma cell line; format: cell-based, human
Description: as §1, §2, §3

[10] = tested on: RPMI8226; test: MTT cell viability assay, myeloma cell line; format: cell-based, human
Description: as §1, §2, §3

[11] = tested on: AMO1; test: MTT cell viability assay, myeloma cell line; format: cell-based, human
Description: as §1, §2, §3

[12] = tested on: NAN8; test: MTT cell viability assay, myeloma cell line; format: cell-based, human
Description: as §1, §2, §3

[13] = tested on: KMS12BM; test: MTT cell viability assay, myeloma cell line; format: cell-based, human
Description: as §1, §2, §3

[14] = tested on: NCI-H929; test: MTT cell viability assay, myeloma cell line; format: cell-based, human
Description: as §1, §2, §3

[15] = tested on: U266; test: MTT cell viability assay, myeloma cell line; format: cell-based, human
Description: as §1, §2, §3

[16] = tested on: MM1S; test: MTT cell viability assay, myeloma cell line; format: cell-based, human
Description: as §1, §2, §3

[17] = tested on: KMM1; test: MTT cell viability assay, myeloma cell line; format: cell-based, human
Description: as §1, §2, §3

[18] = tested on: ANBL6; test: MTT cell viability assay, myeloma cell line; format: cell-based, human
Description: as §1, §2, §3

[19] = tested on: KMS11; test: MTT cell viability assay, myeloma cell line; format: cell-based, human
Description: as §1, §2, §3

[20] = tested on: SBN; test: MTT cell viability assay, myeloma cell line; format: cell-based, human
Description: as §1, §2, §3

[21] = tested on: NAN9; test: MTT cell viability assay, myeloma cell line; format: cell-based, human
Description: as §1, §2, §3

[22] = tested on: JJN3; test: MTT cell viability assay, myeloma cell line; format: cell-based, human
Description: as §1, §2, §3

[23] = tested on: LP1; test: MTT cell viability assay, myeloma cell line; format: cell-based, human
Description: as §1, §2, §3

[24] = tested on: XG1; test: MTT cell viability assay, myeloma cell line; format: cell-based, human
Description: as §1, §2, §3

[25] = tested on: XG11; test: MTT cell viability assay, myeloma cell line; format: cell-based, human
Description: as §1, §2, §3

[26] = tested on: NAN1; test: MTT cell viability assay, myeloma cell line; format: cell-based, human
Description: as §1, §2, §3

[27] = tested on: OPM2; test: MTT cell viability assay, myeloma cell line; format: cell-based, human
Description: as §1, §2, §3

[28] = tested on: XG7; test: MTT cell viability assay, myeloma cell line; format: cell-based, human
Description: as §1, §2, §3

[29] = tested on: MV4;11 AML cells; test: Luciferase MV4;11 AML engraftment model in NSG mice; format: in vivo, mouse; details: MV4;11-luciferase, Compound 1, HCl 100 mg/kg oral daily, Compound 2 25 mg/kg IV twice weekly, 4 weeks
Description: In vivo experimentation AML engraftment: Animal studies were performed under the institutional guidelines approved by the Alfred Medical Research and Education Precinct Animal Ethics Committee, MV4; 11 cells transduced with the luciferase reporter (pLUC2) were intravenously injected at 1×10^5 cells into irradiated (100 Rad) non-obese diabetic/severe combined immunodeficient (NOD/SCID/IL2rγnull) mice as previously described (Jin et al., Cell Stem Cell 2 Jul. 2009, Volume 5, Issue 1, Pages 31-42). Engraftment was measured at day 7 by quantifying the percentage of hCD45+ cells in the PB by flow cytometry and by IVIS imaging of bioluminescent MV4; 11 cells. At day 10, mice received daily oral gavage of Compound 1, HCl (200 μL 100mg/kg—dosage expressed as the free base) dissolved in PEG400 (Sigma), absolute ethanol (Sigma) and distilled H20 40:10:60 or Compound 2 (200 μL 25 mg/kg) twice weekly dissolved in 50% 2-hydroxypropyl)-β-cyclodextrin (Sigma) and 50% 50mM HCl or the drug combination or vehicle, over 4 weeks. Blood counts were determined using a hematology analyzer (BioRad, Gladesville, NSW). […]
To verify the in vivo activity of this approach, luciferase expressing MV4; 11 AML cells were engrafted into NSG mice and treated with Compound 1 (HCl salt) or Compound 2 alone, or in combination and tumour burden assessed after 14 and 21 days of therapy (FIG. 2B). […]

[30] = + 1 μM Compound 1, HCl, read-out: IC50 of Compound 2 in the presence of 1 μM of Compound 1, HCl

Cc1c(-c2c(-c3ccc(F)o3)sc3ncnc(O[C@H](Cc4ccccc4OCc4ccnn4CC(F)(F)F)C(=O)O)c23)ccc(OCCN2CCN(C)CC2)c1Cl [Compound 2, (2R)-2-{[(5Sa)-5-{3-chloro-2-methyl-4-[2-(4-methylpiperazin-1-yl)ethoxy]phenyl}-6-(5-fluorofuran-2-yl)thieno[2,3-d]pyrimidin-4-yl]oxy}-3-(2-{[1-(2,2,2-trifluoroethyl)-1H-pyrazol-5-yl]methoxy}phenyl)propanoic acid]
proportion of primary AML samples highly sensitive (LC50<10 nM) [1]: Approximately 20%
IC50 [2]: 1.5 nM
IC50 [3, 30]: 2.7 nM
IC50 ([3]; single agent, read-out: IC50): 6.4 nM
IC50 [4, 30]: 25.9 nM
IC50 ([4]; single agent, read-out: IC50): 56.3 nM
IC50 [5, 30]: 1.8 nM
IC50 ([5]; single agent, read-out: IC50): 7.1 nM
IC50 [6, 30]: 59.3 nM
IC50 ([6]; single agent, read-out: IC50): 1110 nM
IC50 [7, 30]: 3.4 nM
IC50 ([7]; single agent, read-out: IC50): 7.6 nM
IC50 [8, 30]: 0.5 nM
IC50 ([8]; single agent, read-out: IC50): 19.2 nM
IC50 [9, 30]: 1.3 nM
IC50 ([9]; single agent, read-out: IC50): 6.1 nM
IC50 [10, 30]: 3 nM
IC50 ([10]; single agent, read-out: IC50): 27.4 nM
IC50 [11, 30]: 0.2 nM
IC50 ([11]; single agent, read-out: IC50): 0.5 nM
IC50 [12, 30]: 32.5 nM
IC50 ([12]; single agent, read-out: IC50): 75.4 nM
IC50 [13, 30]: 0.03 nM
IC50 ([13]; single agent, read-out: IC50): 44.1 nM
IC50 [14, 30]: 1 nM
IC50 ([14]; single agent, read-out: IC50): 2.3 nM
IC50 [15, 30]: 14.9 nM
IC50 ([15]; single agent, read-out: IC50): 170 nM
IC50 [16, 30]: 23 nM
IC50 ([16]; single agent, read-out: IC50): 138 nM
IC50 [17, 30]: 8.6 nM
IC50 ([17]; single agent, read-out: IC50): 57.8 nM
IC50 [18, 30]: 20.8 nM
IC50 ([18]; single agent, read-out: IC50): 79.5 nM
IC50 [19, 30]: 3.9 nM
IC50 ([19]; single agent, read-out: IC50): 44.1 nM
IC50 [20, 30]: 14.6 nM
IC50 ([20]; single agent, read-out: IC50): 221 nM
IC50 [21, 30]: 1.1 nM
IC50 ([21]; single agent, read-out: IC50): 9.7 nM
IC50 [22, 30]: 2.4 nM
IC50 ([22]; single agent, read-out: IC50): 15.6 nM
IC50 [23, 30]: 2.9 nM
IC50 ([23]; single agent, read-out: IC50): 158 nM
IC50 [24, 30]: 0.2 nM
IC50 ([24]; single agent, read-out: IC50): 5.9 nM
IC50 [25, 30]: 8.3 nM
IC50 ([25]; single agent, read-out: IC50): 375 nM
IC50 [26, 30]: 1.4 nM
IC50 ([26]; single agent, read-out: IC50): 5.7 nM
IC50 [27, 30]: 1.2 nM
IC50 ([27]; single agent, read-out: IC50): 9.4 nM
IC50 [28, 30]: 8 nM
IC50 ([28]; single agent, read-out: IC50): 16.3 nM
in vivo anti-leukaemic activity (luciferase tumour burden, survival) [29]: reduced luciferase bulk

Source: patent publication US20190240225A1, “COMBINATION OF A BCL-2 INHIBITOR AND A MCL-1 INHIBITOR, USES AND PHARMACEUTICAL COMPOSITIONS THEREOF” (LES LABORATOIRES SERVIER, priority 2016, published 2019)
